The source of these data is US9271946B2, “Use of a RAR antagonist or inverse agonist for the treatment of chemotherapy and/or radiation therapy side effects” (IO Therapeutics, Inc., priority 2006, dated 2016).

The subject of one experiment is S. aureus MSSA 476. The experiment can be described thus: activity against S. aureus, growth on agar and in liquid culture. It is filed as cell-based. How it is done:
(§1) The compound was analyzed at an appropriate concentration in several assays for activity against S. aureus EMRSA-16 252 and S. aureus MSSA 476.

A further experiment deals with S. aureus EMRSA-16 252. Described as above. It is filed as cell-based. The method, then: as §1
Experiment [1] concerns S. aureus 29213 infection in leukopenic female BDF1 mice. Briefly: protective effect against S. aureus infection in leukopenic mice (Example 3). Type of experiment: in vivo, mouse. The method, then: S. aureus 29213 obtained from American Type Culture Collection (ATCC) (Rockville, Md.) was used to induce infections in leukopenic female BDF1 mice (20-22 g). S. aureus were cultured at 37° C. in Tryptic Soy broth until the mid-logarithmic phase of growth (optical density at 600 nm=0.3), harvested, and washed with PBS. The number of bacteria was enumerated by serial dilution with PBS, plating onto blood agar, and counting colony-forming units (CFU) 48 hours after incubation at 37° C. The suspension was adjusted to […].
Mice were rendered leukopenic by i.p. injection of CPM at 200 mg/kg. A lethal dose (LD) of S. aureus was determined by intravenous injections of 1×10^3 to 1×10^8 CFU to groups of 10 mice 4 days after CPM treatment. 10-day survivors were enumerated, and the LD95 of S. aureus was calculated by Probit analysis. Treatment with VTP 194310 (at 1 mg/kg) was started one day before CPM and continued for 3 more days. Four days after CPM, the animals were infected intravenously with 4.1 and 2.5×10^6 CFU of S. aureus in 200 μl of PBS. Surviving animals were recorded daily for 14 days after the challenge. […] All experiments were performed in compliance with relevant laws and institutional guidelines, and were approved by the Animal Care and Use Committee.

The target in a further experiment is T1, RARα (Homo sapiens, UniProt P10276).
T1 sequence (P10276 1-462): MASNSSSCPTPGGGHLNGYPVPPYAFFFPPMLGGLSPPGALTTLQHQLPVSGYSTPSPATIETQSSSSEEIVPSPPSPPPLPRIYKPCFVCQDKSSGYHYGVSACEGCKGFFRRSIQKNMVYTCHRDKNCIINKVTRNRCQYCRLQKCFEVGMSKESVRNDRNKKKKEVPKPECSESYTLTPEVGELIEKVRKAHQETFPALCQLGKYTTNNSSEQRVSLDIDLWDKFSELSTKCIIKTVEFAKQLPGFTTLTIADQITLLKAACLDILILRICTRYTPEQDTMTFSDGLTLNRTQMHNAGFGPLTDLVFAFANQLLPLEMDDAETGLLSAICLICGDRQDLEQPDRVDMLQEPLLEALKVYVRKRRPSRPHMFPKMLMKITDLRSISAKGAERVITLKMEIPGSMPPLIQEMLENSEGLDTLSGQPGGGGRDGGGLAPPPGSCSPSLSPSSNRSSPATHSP
Briefly: binding to RARα.

The test system of experiment [2] is CPM-induced leukopenic mice. Briefly: peripheral and systemic neutrophil recovery in CPM-induced leukopenic mice, spleen and bone marrow (Example 2). Type of experiment: in vivo, mouse. How it is done:
Leukopenia was induced in male BDF1 mice (C57Bl×DBA2, 7.5-12 weeks) by an intra-peritoneal (i.p.) injection of 200 mg/kg Cyclophosphamide (CPM, Sigma-Aldrich, Saint Louis, Mo.) in 0.2 ml saline. The effect of VTP 194310 on leukocyte recovery was evaluated by oral gavage of animals with 1 mg/kg of VTP 194310 as indicated in the results section. VTP 194310 (dissolved in DMSO) was diluted through peanut oil as the vehicle (dosed at 5 ml/kg). Control mice were given DMSO and vehicle alone. As a positive control, granulocytopoiesis was stimulated in CPM-treated mice by a single sub-cutaneous injection of 10 μg/kg pegylated recombinant methionyl human granulocyte colony-stimulating factor (PEG-r-metHuG-CSF) (Neulasta, Pegfilgrastim; Amgen, Thousand Oaks, Calif.) on day 2. Three separate experiments were performed.
Peripheral blood (60 μl) was collected under anaesthesia from the retroorbital sinus of the mice with heparinized capillary tubes and transferred to EDTA-coated microtainer tubes (Becton Dickinson, Franklin Lakes, N.J.). White cell, neutrophil, and lymphocyte counts were obtained for at least three mice per group by diluting the blood 1:4 with PBS containing 5% bovine serum albumin (Fraction V; Sigma, Saint Louis, Mo.), and by using an Advia 120 Hematology System (Bayer HealthCare Diagnostics Division, Tarrytown, N.Y.).
Immature (Gr-1^low/CD11b^+ve) and mature (Gr-1^+ve/CD11b^+ve) neutrophils were identified in single cells suspensions prepared from spleen and bone marrow (femur) aspirates by double immunostaining using PE- and FITC-conjugated monoclonal antibodies (Pharmingen, San Diego, Calif.). Cells were analysed on a FACS Calibur interfaced with CellQuest Pro software program (Becton Dickinson, San Jose, Calif.).
These mice were gavaged with VTP 194310 on days −1 to 2 in relation to CPM treatment.

For another experiment, the target named is T2, RARγ (Homo sapiens, UniProt P13631).
T2 sequence (P13631 1-454): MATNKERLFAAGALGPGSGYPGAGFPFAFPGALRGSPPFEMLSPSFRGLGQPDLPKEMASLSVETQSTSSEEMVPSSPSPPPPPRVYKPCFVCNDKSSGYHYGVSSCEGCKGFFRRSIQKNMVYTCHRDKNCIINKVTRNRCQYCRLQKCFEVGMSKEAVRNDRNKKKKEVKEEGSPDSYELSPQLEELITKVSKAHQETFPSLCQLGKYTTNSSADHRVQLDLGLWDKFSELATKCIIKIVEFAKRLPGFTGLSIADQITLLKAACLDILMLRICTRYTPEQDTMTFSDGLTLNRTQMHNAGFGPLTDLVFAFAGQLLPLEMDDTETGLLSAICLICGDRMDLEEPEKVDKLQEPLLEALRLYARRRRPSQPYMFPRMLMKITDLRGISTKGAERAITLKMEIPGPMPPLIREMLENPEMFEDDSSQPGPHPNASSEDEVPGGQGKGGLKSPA
Briefly: binding to RARγ.

For another experiment, the system named is RAR. The experiment can be described thus: transactivation assays. It is filed as cell-based. An excerpt: An assay that can be used to determine the agonist activity in the RARα, RARβ and RARγ receptor subtypes is described in Feigner, P. L., and Holm, M., FOCUS, 11:2, 21+ (1989) and U.S. Pat. Nos. 5,455,265 and 7,166,726, all of which are incorporated herein by reference in their entirety.

Where [3] appears, read: 2 μM incorporated into the agar.
Where [4] appears, read: 50 μl of 2 μM in agar-well-diffusion assay.

As usually defined, the Ki is the dissociation constant of the complex between target and ligand, obtained from inhibition or displacement. High values mean lower affinity, low ones higher affinity. Consider `CCc1ccc(C2=CC(C)(C)Sc3ccc(C#Cc4ccc(C(=O)O)cc4)cc32)cc1` [VTP 194310, 4-[[4-(4-ethylphenyl)-2,2-dimethyl-(2H)-thiochromen-6-yl]-ethynyl]-benzoic acid], for which the “growth rate in liquid culture” value with S. aureus MSSA 476 (2 μM) and in the experiment on S. aureus EMRSA-16 252 (2 μM) was “neither strain demonstrated any alteration in growth rate” each time. The “growth of bacteria on agar” value in the experiment with S. aureus MSSA 476 (setting [3]), in the experiment with S. aureus MSSA 476 (setting [4]), in the experiment with S. aureus EMRSA-16 252 (setting [3]) and in the experiment on S. aureus EMRSA-16 252 (setting [4]) was “not inhibited” in each case. Further, the “protective effect against S. aureus infection compared to controls” value in experiment [1] (Logrank p=0.0031 (4.1×10^6 CFU), p<0.0001 (2.5×10^6 CFU)) is “very significant protective effect”. The mice alive in experiment [1] (day 10, each of the doses of S. aureus (4.1 and 2.5×10^6 CFU), 1 mg/kg days −1 to 2) is 83%; in experiment [1] (day 14, 2.5×10^6 CFU S. aureus), 67%; in experiment [1] (day 14, higher dose of bacteria (4.1×10^6 CFU)) it was 42%. Besides, the inhibition constant Ki on RARα stood at 3 nM; at RARγ, 5 nM. For the same compound, in experiment [2] (day 7), the “absolute number of immature granulocytes (Gr-1low/CD11b+ve) in the spleen” value is 0.93±0.02 ×10^7. The “absolute number of Gr-1+ve/CD11b+ve cells in the spleen” value in experiment [2] (days 6 and 7) is “significantly increased”. In experiment [2] (days 6 and 7), the “immature granulocytes (Gr-1low/CD11b+ve) in the spleen” value is “elevated”. Further, the “neutrophil, and lymphocyte counts compared to control recovering mice” value in experiment [2] (days 6 to 8, gavaged days −1 to 2) is listed as “significantly elevated”. For the same compound, the “spleen weight compared to controls” value in experiment [2] (days 7 and 8, gavaged days −1 to 2) is “increased”. Also, in experiment [2] (gavaged days −1 to 2), the “Gr-1+ve/CD11b+ve cells in the bone marrow” value is listed as “increased prevalence”. Moreover, the “activity in transactivation assays” value in the experiment on RAR (agonist activity) is “no activity”. Moreover, in the experiment with RAR (antagonism), the “gene transcriptional activity induced by ATRA and other RAR agonists” value is reported as “blocks the gene transcriptional activity”.
